Legend:
[1] = pKa of the acid/base indicator dye; assay type: physicochemical
β-galactosidase = experiment: Substrate evaluation: hydrolysis by β-galactosidase in solution; assay type: biochemical
[2] = 50 mM phosphate buffer pH 7.4 (containing no magnesium)

pKa [1] | SMILES | substrate for β-galactosidase (in words) (β-galactosidase) | Km (β-galactosidase; [2]) [µM] | rate (Kcat) of hydrolysis to give 2 (β-galactosidase; [2])
6.34 | O=c1ccc2nc3ccc(O)cc3ccc-2c1 [Compound 1, 8-Hydroxy-2H-dibenz[b,f]azepin-2-one] |  |  | 
6.95 | O=C1C=CC2=Nc3ccc(O)cc3CCC2=C1 [Compound 2, 8-Hydroxy-10,11-dihydro-2H-dibenz[b,f]azepin-2-one] |  |  | 
 | O=c1ccc2nc3ccc(O[C@@H]4O[C@H](CO)[C@H](O)[C@H](O)[C@H]4O)cc3ccc-2c1 [Compound 3, 8-(β-D-galactopyranosyloxy)-2H-dibenz[b,f]azepin-2-one] | substrate for β-galactosidase |  | 
 | O=C1C=CC2=Nc3ccc(O[C@@H]4O[C@H](CO)[C@H](O)[C@H](O)[C@H]4O)cc3CCC2=C1 [Compound 4, 8-(β-D-galactopyranosyloxy)-10,11-dihydro-2H-dibenz [b,f]azepin-2-one] | substrate for β-galactosidase | 96 | 7.07×10^3 mol. min^-1 /mol. active site

From US5208326A, “8-hydroxy-2H-dibenz(b,f)azepin-2-one dyes” (Miles Inc., priority 1991, dated 1993)
